Results published in article PMC4450091 (JOM (Warrendale, Pa. : 1989), 2015).
Where no end group is shown, it is not given here.

Tests used:
[1] = tested on: Escherichia coli ATCC 2592; format: cell-based; details: ATCC 2592, 24 h
[2] = tested on: Streptococcus mutans ATCC 25175; format: cell-based; details: ATCC 25175, 24 h

Row | Sequence | Minimum inhibitory concentration (MIC), E. coli [1] [µM] | Minimum inhibitory concentration (MIC), S. mutans [2] [µM]
1 | RPRENRGRERGLGGGKWKRWWWWR [TiBPS1-AMP2] | 80.8 | –
2 | HAYKQPVLSTPFGGGKWKRWWWWR [TiBPS3-AMP2] | 167.4 | –
3 | SRPNGYGGSESSGGGLKLLKKLLKLLKKL [TiBPS2-AMP1] | – | 336.5
